According to patent EP4385491A1, “PH-STABLE BIOTECHNOLOGY COMPOSITION BASED ON LACCASE FOR TARGETED DEGRADATION OF COLOURED MELANOIDINES AND/OR PHENOLIC ORGANIC COMPOUNDS ON DENSE SURFACES” (SkyLab AG, priority 2022, dated 2024):

Conditions: pH 3.0, coffee solution, 60 min

Degradation of melanoidins and phenolic organic compounds, % (40 ± 1°C, 325 nm, laccase 0.25 wt.% raw material (0.0875 wt.% active), hydrogen peroxide 0.01%): -6.0%
Structure (SMILES): OO [0.01% hydrogen peroxide solution, hydrogen peroxide]
activity against melanoidins and phenolic organic compounds (in words): low degradation
